In US8703988B2, “Self-assembled nanostructures” (Xerox Corporation, priority 2010, dated 2014):
“Also recorded” adds a separate entry of the source.

How the values were obtained:
[1] = Gelation test (gelator ability in solvents, vial inversion); assay type: physicochemical; design: key: I = insoluble; P = precipitate; S = solution; VS = viscous solution; G = gel; PG = partial gel; details: concentration in wt % in parentheses in each cell
Method: A number of characterization methods are useful for detecting and characterizing self-assembled nanostructures from alkylated derivatives of aromatic acids. The simplest test is to observe any changes in viscosity (rheology) of the liquid containing the alkylated compound relative to the neat liquid alone. […] The increase in viscosity and gelation of liquids is known to occur due to the presence and entanglement of long, 1D aggregates.
To vials with a screw cap lids (4 mL capacity) were added alkylated derivatives of aromatic acids as solids (1-100 mg) and a solvent (1 mL). The mixture was then sonicated and heated until clear solutions were obtained. After cooling and standing at room temperature for at least 30 min., the sample was inverted and inspected visually.

[2] = Self-assembled nanostructures observed by SEM and STEM; assay type: physicochemical
Description: Microscopy techniques such as optical light microscopy, scanning electron microscopy (SEM), transmission electron microscopy (TEM), atomic force microscopy (AFM)/scanning probe microscopy (SPM), and fluorescence microscopy are useful for determining the size and morphology of the nano (and micro) structures formed from alkylated derivatives of aromatic acids. Samples are typically prepared by depositing a drop of the liquid composition containing the nanostructures onto an appropriate sample substrate such as a carbon film coated copper mesh TEM grid, removing the excess liquid by blotting with filter paper, and then allowing to dry prior to analysis. Dynamic light scattering is also useful for detecting the presence of particles between 1 nm and 1 μm in size, measuring the size/size distribution of the dispersed particles. Rheometry is useful for determining the viscoelastic properties and thermal phase transitions for compositions of the self-assembled nanostructures. X-ray diffraction is useful for characterizing the structure of the self-assembled nanostructures size as phase identification, crystallinity, phase transitions, crystal structure refinement and determination, and size and strain broadening of crystallite nanostructures. NMR spectroscopy is useful in detecting the formation intermolecular noncovalent interactions stabilizing the nanostructures, their diffusion properties, as well as phase transitions. UV-Vis can be used for detecting the presence of nanostructures as well as confirming the presence of intermolecular pi-stacking interactions. FT-IR spectroscopy is also useful for the detection of hydrogen-bonding interactions involved in stabilizing the self-assembled nanostructures. Differential Scanning calorimetry (DSC) is another useful characterization technique, which enables the identification of thermal phase transitions within the compositions containing the nanostructures.
This example describes the self-assembled nanostructures formed from alkylated derivatives of aromatic acids deposited onto substrates observed by Scanning Electron and Scanning Transmission Electron Microscopy (SEM and STEM, respectively).
Microscopy samples are prepared by mixing the alkylated derivatives of aromatic acids as solids with a solvent, subjecting the mixture to bath sonication, and then heating to form a clear solution. The solutions are then cooled to room temperature and allowed to age for desired periods of time prior to microscopy sample preparation. After cooling, the samples may be clear solutions, turbid colloidal solutions, or more opaque dispersions. Microscopy samples are prepared for analysis by depositing a drop on thin carbon film coated copper mesh grids, allowing the drop to remain on the film for a desired period of time, followed by wicking away the excess solvent with filter paper and allowing to dry. Table 5 summarizes examples of compositions containing nanostructures of alkylated derivatives of selected aromatic acids for this invention. FIGS. 1 to 7 show Scanning Electron Microscopy and Scanning Transmission Electron Microscopy images of the nanostructures formed from alkylated derivatives of selected aromatic acids.

[3] = solvent H2O, sonicated, heated, cooled, room temperature at least 30 min, vial inverted
[4] = Xylenes:THF (1:1), 1.3 mg/mL, fibrils
[5] = Toluene, 0.1 mg/mL, bundles of fibrils

gelator ability (state of sample) ([1]; solvent CHCl3) | gelator ability (state of sample) ([1]; solvent Cyclohexane) | gelator ability (state of sample) ([1]; solvent Decalin) | gelator ability (state of sample) ([1]; solvent Dimethoxyethane) | gelator ability (state of sample) ([1]; solvent Ethylene Glycol) | gelator ability (state of sample) [1, 3] | gelator ability (state of sample) ([1]; solvent Hexanes) | gelator ability (state of sample) ([1]; solvent MeOH) | gelator ability (state of sample) ([1]; solvent Toluene) | gelator ability (state of sample) ([1]; solvent Xylenes) | Description (nanostructure) ([2]; Chloroform, 0.1 mg/mL) | L ([2]; Chloroform, 0.1 mg/mL, fibrils) | W ([2]; Chloroform, 0.1 mg/mL, fibrils) | gelator ability (state of sample) ([1]; solvent Hexadecane) | SMILES | also measured
P (0.1) | I (0.1) | I (2.0) | S (0.1) | P (2.5) | I (0.1) | I (0.1) | S (3.0) | I (0.5) | I (2.0) | Fibrils | 50-1000 nm | 5-10 nm |  | CCCCCCCCCCCCC(CCCCCCCCCC)C(=O)Nc1cc(C(N)=O)cc(C(N)=O)c1 (stereo not shown) [compound 74, 5-(2-decyltetradecanamido)isophthalamide] | Description (nanostructure) ([2]; Chloroform, 1.0 mg/mL): Fibers; L ([2]; Chloroform, 1.0 mg/mL, fibers): 300-800 nm; W ([2]; Chloroform, 1.0 mg/mL, fibers): 25-200 nm; Description (nanostructure) ([2]; EtOH:H2O, 1.0 mg/mL): Fibers; also recorded: Fibrils; L ([2]; EtOH:H2O, 1.0 mg/mL, fibers): >5000 nm; W ([2]; EtOH:H2O, 1.0 mg/mL, fibers): 50-250 nm; L ([2]; EtOH:H2O, 1.0 mg/mL, fibrils): 10-100 nm; W ([2]; EtOH:H2O, 1.0 mg/mL, fibrils): 5-10 nm
I (0.1) |  |  |  | S (0.1) | I (0.1) | I (0.1) | S | I (1.3) |  |  |  |  | I (1.1) | CCCC(=O)Nc1cc(C(=O)O)cc(C(=O)O)c1 [compound 45, 5-(butyramido)isophthalic acid] | L [2, 4]: 50-1000 nm; W [2, 4]: 3-6 nm; L ([2]; Xylenes:THF (1:1), 1.3 mg/mL, sheets): 2000-10000 nm
G (0.4) | G (1.0) | G (0.5) | G (0.6) | PG (2.0) | I (0.1) | P (0.2), | S (0.1) | G (1.0) | G (1) |  |  |  | G (1) | CCCCCCCCCCCCC(CCCCCCCCCC)C(=O)Nc1cc(C(=O)O)cc(C(=O)O)c1 (stereo not shown) [compound 53, 5-(2-decyltetradecanamido)isophthalic acid] | gelator ability (state of sample) ([1]; solvent Benzene): G (0.4); gelator ability (state of sample) ([1]; solvent Dodecane): G (1); Description (nanostructure) ([2]; Toluene, 0.1 mg/mL): Bundles of fibrils; L [2, 5]: >1000 nm; W [2, 5]: 20-100 nm; L ([2]; Toluene, 0.1 mg/mL, fibrils): >1000 nm; W ([2]; Toluene, 0.1 mg/mL, fibrils): 5-10 nm
I (0.1) |  | G (2.3) | S (1.0) | P (0.5) | I (0.1) |  | G (2.0) | I (0.1) | G (2.0) | Fibrils | >1000 nm | 5-10 nm | I (0.1) | CCCCCCCCCCCCCCCCCCNC(=O)Nc1cc(C(=O)O)cc(C(=O)O)c1 [compound 56] | 
